Reference: patent publication US20250304645A1, “Prodrugs of GLP-1 Polypeptide and Uses Thereof” (Novo Nordisk A/S, priority 2022, published 2025)

Assay: Prodrug to drug conversion half-life in vitro in PBS at pH 7.4 and 37° C. (UPLC-UV-MS)
Type: physicochemical
Details: prodrug to parent drug conversion, PBS pH 7.4, 37° C., first order T½
Experimental: The assay was performed to investigate the conversion half-life of prodrug to drug of the prodrugs of the invention.
Peptide stock solutions were prepared by dissolving freeze-dried powder in PBS buffer to a target of 200 μM. PBS-buffer was Dulbecco's Phosphate Buffered Saline without CaCl2 and MgCl2, gibco 14190-094 adjusted to pH=7.4. The pH of the peptide stock solutions was adjusted to 7.4 with 0.02 M HCl or 0.02M NaOH. Samples were filled in Agilent HPLC vials with fixed insert. Vials were capped to prevent evaporation. The HPLC vials were incubated at 37° C. and samples were withdrawn at different time points over a period of 2 weeks, flash frozen at −80° C., and stored at −20° C. until analysis.
Sample analysis was carried out using UPLC coupled to UV detection at 215 nm and MS (UPLC-UV-MS). One μl of sample was injected on to a Waters Acquity UPLC with a flow-through-needle injection system and on to a Waters Acquity CSH C18 column (1*150 mm), with a particle size of 1.7 μm and held at 55° C. A flow-rate of 100 μl/min was delivered with a Binary solvent manager pump having 0.1% formic acid in water as solvent A and 0.1% formic acid in acetonitrile as solvent B. Gradient elution was carried out using 15-32% B from 0 to 4 min followed by 32 to 48% B from 4 to 54 min. […]

Conversion half-life | Compound | half-life (buffer)
 | CC[C@H](C)[C@H](NC(=O)[C@H](Cc1ccccc1)NC(=O)[C@H](CCC(=O)O)NC(=O)[C@H](CCCCNC(=O)COCCOCCNC(=O)COCCOCCNC(=O)CC[C@H](NC(=O)CCCCCCCCCCCCCCCCC(=O)O)C(=O)O)NC(=O)[C@H](C)NC(=O)[C@H](C)NC(=O)[C@H](CCC(N)=O)NC(=O)CNC(=O)[C@H](CCC(=O)O)NC(=O)[C@H](CC(C)C)NC(=O)[C@H](Cc1ccc(O)cc1)NC(=O)[C@H](CO)NC(=O)[C@H](CO)NC(=O)[C@@H](NC(=O)[C@H](CC(=O)O)NC(=O)[C@H](CO)NC(=O)[C@@H](NC(=O)[C@H](Cc1ccccc1)NC(=O)[C@@H](NC(=O)CNC(=O)[C@H](CCC(=O)O)NC(=O)C(C)(C)NC(=O)[C@H](Cc1c[nH]cn1)NC(=O)[C@@H]1CSCN1C(=O)[C@@H](N)CCCCNC(=O)COCCOCCNC(=O)COCCOCCNC(=O)CC[C@H](NC(=O)CCCCCCCCCOc1cccc(C(=O)O)c1)C(=O)O)[C@@H](C)O)[C@@H](C)O)C(C)C)C(=O)N[C@@H](C)C(=O)N[C@@H](Cc1c[nH]c2ccccc12)C(=O)N[C@@H](CC(C)C)C(=O)N[C@H](C(=O)N[C@@H](CCCNC(=N)N)C(=O)NCC(=O)N[C@@H](CCCNC(=N)N)C(=O)NCC(=O)O)C(C)C [Chem. 8, N{ε26}-[2-[2-[2-[[2-[2-[2-[[(4S)-4-carboxy-4-(17-carboxyheptadeca-noylamino)butanoyl]amino]ethoxy]ethoxy]acetyl]amino]ethoxy]ethoxy]acetyl]-N{ε}-[2-[2-[2-[[2-[2-[2-[[(4S)-4-carboxy-4-[10-(3-carboxyphenoxy)decanoylamino]butanoyl]amino]ethoxy]ethoxy]acetyl]amino]ethoxy]ethoxy]acetyl]Lys-Thz-[Aib8,Arg34]-GLP-1-(7-37)-peptide] | 175 h
168 h | N{ε26}-[2-[2-[2-[[2-[2-[2-[[(4S)-4-carboxy-4-(17-carboxyheptadeca-noylamino)butanoyl]amino]ethoxy]ethoxy]acetyl]amino]ethoxy]ethoxy]acetyl]-N{ε}-[(2S)-2-[[(4S)-4-carboxy-4-(17-carboxyheptadecanoylamino)butanoyl]amino]-3-hydroxypropanoyl]Lys-Thz-[Aib8,Arg34]-GLP-1-(7-37)-peptide [Chem. 18] | 
